Results from PubChem BioAssay (NCI).
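GI50 is the concentration that inhibits growth by half. The concentration for full growth arrest is given as TGI.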

Columns and labels:
Test in all cases: NCI-60 cell line screen, 384-well format
[1] = system: A549 NSCLC
[2] = system: CCRF-CEM leukemia
[3] = system: COLO 205 colon
[4] = system: DU-145 prostate
[5] = system: HL-60(TB) leukemia
[6] = system: HS 578T breast
[7] = system: KM12 colon
[8] = system: M14 melanoma
[9] = system: MALME-3M melanoma
[10] = system: MCF7 breast
[11] = system: MDA-MB-468 breast
[12] = system: MOLT-4 leukemia
[13] = system: NCI-H23 lung
[14] = system: NCI-H460 NSCLC
[15] = system: NCI-H522 lung
[16] = system: RPMI-8226 leukemia
[17] = system: SK-MEL-5 melanoma
[18] = system: SN12C renal
[19] = system: SNB-19 CNS
[20] = system: SR leukemia
[21] = system: SW-620 colon
[22] = system: TK-10 renal

Q: Which results are given for C[C@@H](CN1CC(=O)NC(=O)C1)N1CC(=O)NC(=O)C1?
A: GI50 [1]: 10.1 µM; GI50 [2]: 13.7 µM; TGI [2]: 29.4 µM; GI50 [3]: 10.6 µM; TGI [3]: 27.8 µM; GI50 [4]: 52.4 µM; GI50 [5]: 4.32 µM; TGI [5]: 18.4 µM; GI50 [6]: 21.2 µM; GI50 [7]: 91.7 µM; GI50 [8]: 55.7 µM; GI50 [9]: 34.6 µM; GI50 [10]: 77.7 µM; GI50 [11]: 29.1 µM; TGI [11]: 57.9 µM; GI50 [12]: 5.07 µM; TGI [12]: 17.2 µM; GI50 [13]: 71.8 µM; GI50 [14]: 19.7 µM; GI50 [15]: 53.9 µM; GI50 [16]: 3.65 µM; TGI [16]: 19.7 µM; GI50 [17]: 74.8 µM; GI50 [18]: 74.4 µM; GI50 [19]: 96.1 µM; GI50 [20]: 2150 nM; TGI [20]: 4.68 µM; GI50 [21]: 83.4 µM; GI50 [22]: 68 µM
